Structures are written as SMILES.

Our source for the Kd values is article PMC8162404, “Proteomimetic surface fragments distinguish targets by function” (Chemical Science, 2020).

Experiment in all cases: Pull-down assay with immobilized protein and LSM libraries
For experiment [1], the target named is T1, CaM (Bos taurus, UniProt P62157).
T1 construct: made in house; host or cells: E. coli BL21 (DE3)
It counts as binding, bovine. The conditions noted are these: H12 library; 1:2 stoichiometry assumed; read-out: Surface mapping KD (apparent). In short, it runs like this:
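CaM buffer was 20 mM HEPES pH 7.4, 150 mM NaCl, 5 mM CaCl2. LSM sublibrary members ([…]) incubated 30 min, RT, with equimolar His-tagged protein on Co-NTA resin. HPLC-MS measured unbound probes; bound fraction relative to resin-only background gave dissociation constants.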

Experiment [2] has as its target T2, Gal-1 (Homo sapiens, UniProt P09382).
T2 construct: made in house; host or cells: E. coli BL21(DE3)
The class given is binding. The following applies: H12 library; 1:1 binding assumed; read-out: Surface mapping KD (apparent). In short, it runs like this:
(§1)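 Buffers were HEPES pH 7.4 with 150 mM NaCl, plus 1 mM TCEP and 1 mM CaCl2 (50 mM HEPES) for S100A4 and S100B, 1 mM TCEP for Gal-1, and no additive for RecQ-WH. Immobilized protein at 64 µM was equilibrated 30 min with the LSM sublibrary, and unbound probes were measured by LC-MS.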

Experiment [3] has as its target T3, S100A4 (Homo sapiens, UniProt P26447).
T3 construct: made in house; host or cells: Escherichia coli BL21(DE3)
It counts as binding. The conditions noted are these: H12 library; 1:1 binding assumed; read-out: Surface mapping KD (apparent). The essentials:
as §1

Experiment [4] addresses T4, S100B (Homo sapiens, UniProt P04271).
T4 construct: made in house; host or cells: Escherichia coli BL21(DE3)
T4 sequence (P04271 1-92): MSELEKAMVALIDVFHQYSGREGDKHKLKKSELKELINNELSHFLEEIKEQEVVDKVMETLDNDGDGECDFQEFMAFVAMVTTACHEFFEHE
The class given is binding. The conditions noted are these: H12 library; 1:1 binding assumed; read-out: Surface mapping KD (apparent). The essentials:
as §1

T2 sequence (P09382 whole entry): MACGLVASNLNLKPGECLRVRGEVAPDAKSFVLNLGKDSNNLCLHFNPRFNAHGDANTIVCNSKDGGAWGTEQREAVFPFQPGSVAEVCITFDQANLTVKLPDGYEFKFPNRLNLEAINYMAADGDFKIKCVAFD
T3 sequence (P26447 whole entry): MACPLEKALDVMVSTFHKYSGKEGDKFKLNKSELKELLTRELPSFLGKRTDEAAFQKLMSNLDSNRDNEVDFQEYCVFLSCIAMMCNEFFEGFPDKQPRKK

As for `CC(C)C[C@@H](CC(=O)N[C@H]1CCC[C@@H]1C(=O)N[C@H]1CCC[C@@H]1C(N)=O)NC(=O)[C@H]1CCC[C@@H]1NC(=O)[C@H]1CCC[C@@H]1NC(=O)C[C@H](CCCCN)NC(=O)[C@H]1CCC[C@@H]1NC(=O)[C@H]1CCC[C@@H]1N` [H12 KL], the Kd in experiment [1] is 324 µM; in experiment [2], 316 µM; in experiment [3] it was 89 µM; in experiment [4], 68 µM.
The matching figures for `NCCCC[C@@H](CC(=O)N[C@H]1CCC[C@@H]1C(=O)N[C@H]1CCC[C@@H]1C(=O)N[C@H](CC(=O)N[C@H]1CCC[C@@H]1C(=O)N[C@H]1CCC[C@@H]1C(N)=O)Cc1c[nH]c2ccccc12)NC(=O)[C@H]1CCC[C@@H]1NC(=O)[C@H]1CCC[C@@H]1N` [H12 KW]: 51 µM, 161 µM, 456 µM and 39 µM.
The matching figures for `CC(C)C[C@@H](CC(=O)N[C@H]1CCC[C@@H]1C(=O)N[C@H]1CCC[C@@H]1C(=O)N[C@H](CC(=O)N[C@H]1CCC[C@@H]1C(=O)N[C@H]1CCC[C@@H]1C(N)=O)Cc1ccccc1)NC(=O)[C@H]1CCC[C@@H]1NC(=O)[C@H]1CCC[C@@H]1N` [H12 LF]: 28 µM, 376 µM, 32 µM and 22 µM.
With `CC[C@H](C)[C@@H](CC(=O)N[C@H]1CCC[C@@H]1C(=O)N[C@H]1CCC[C@@H]1C(N)=O)NC(=O)[C@H]1CCC[C@@H]1NC(=O)[C@H]1CCC[C@@H]1NC(=O)C[C@H](CC(C)C)NC(=O)[C@H]1CCC[C@@H]1NC(=O)[C@H]1CCC[C@@H]1N` [H12 LI], the Kd in experiment [1] was found to be 67 µM; in experiment [2], 415 µM; in experiment [3], 143 µM; in experiment [4], 37 µM.
For `CC(C)C[C@@H](CC(=O)N[C@H]1CCC[C@@H]1C(=O)N[C@H]1CCC[C@@H]1C(N)=O)NC(=O)[C@H]1CCC[C@@H]1NC(=O)[C@H]1CCC[C@@H]1NC(=O)C[C@H](CC(C)C)NC(=O)[C@H]1CCC[C@@H]1NC(=O)[C@H]1CCC[C@@H]1N` [H12 LL], the Kd was determined as 67 µM in experiment [1], 415 µM in experiment [2], 131 µM in experiment [3] and 46 µM in experiment [4].
The matching figures for `CSCC[C@@H](CC(=O)N[C@H]1CCC[C@@H]1C(=O)N[C@H]1CCC[C@@H]1C(N)=O)NC(=O)[C@H]1CCC[C@@H]1NC(=O)[C@H]1CCC[C@@H]1NC(=O)C[C@H](CC(C)C)NC(=O)[C@H]1CCC[C@@H]1NC(=O)[C@H]1CCC[C@@H]1N` [H12 LM]: 211 µM, 378 µM, 381 µM and 74 µM.
For `CC(C)C[C@@H](CC(=O)N[C@H]1CCC[C@@H]1C(=O)N[C@H]1CCC[C@@H]1C(=O)N[C@@H](CCCNC(=N)N)CC(=O)N[C@H]1CCC[C@@H]1C(=O)N[C@H]1CCC[C@@H]1C(N)=O)NC(=O)[C@H]1CCC[C@@H]1NC(=O)[C@H]1CCC[C@@H]1N` [H12 LR], the Kd in experiment [1] is 236 µM; in experiment [2] it was 120 µM; in experiment [3], 345 µM; in experiment [4], 29 µM.
The matching figures for `CC(C)C[C@@H](CC(=O)N[C@H]1CCC[C@@H]1C(=O)N[C@H]1CCC[C@@H]1C(=O)N[C@H](CC(=O)N[C@H]1CCC[C@@H]1C(=O)N[C@H]1CCC[C@@H]1C(N)=O)Cc1c[nH]c2ccccc12)NC(=O)[C@H]1CCC[C@@H]1NC(=O)[C@H]1CCC[C@@H]1N` [H12 LW]: 19 µM, 368 µM, 28 µM and 11 µM.
The matching figures for `CC(C)C[C@@H](CC(=O)N[C@H]1CCC[C@@H]1C(=O)N[C@H]1CCC[C@@H]1C(=O)N[C@H](CC(=O)N[C@H]1CCC[C@@H]1C(=O)N[C@H]1CCC[C@@H]1C(N)=O)Cc1ccc(O)cc1)NC(=O)[C@H]1CCC[C@@H]1NC(=O)[C@H]1CCC[C@@H]1N` [H12 LY]: 28 µM, 347 µM, 100 µM and 56 µM.
For the molecule `CC[C@H](C)[C@@H](CC(=O)N[C@H]1CCC[C@@H]1C(=O)N[C@H]1CCC[C@@H]1C(N)=O)NC(=O)[C@H]1CCC[C@@H]1NC(=O)[C@H]1CCC[C@@H]1NC(=O)C[C@H](CCSC)NC(=O)[C@H]1CCC[C@@H]1NC(=O)[C@H]1CCC[C@@H]1N` [H12 MI], the Kd turned out to be 101 µM in experiment [1], 281 µM in experiment [2], 358 µM in experiment [3] and 54 µM in experiment [4].
The matching figures for `N=C(N)NCCC[C@@H](CC(=O)N[C@H]1CCC[C@@H]1C(=O)N[C@H]1CCC[C@@H]1C(=O)N[C@H](CC(=O)N[C@H]1CCC[C@@H]1C(=O)N[C@H]1CCC[C@@H]1C(N)=O)Cc1ccccc1)NC(=O)[C@H]1CCC[C@@H]1NC(=O)[C@H]1CCC[C@@H]1N` [H12 RF]: 96 µM, 202 µM, 140 µM and 40 µM.
For the molecule `CC[C@H](C)[C@@H](CC(=O)N[C@H]1CCC[C@@H]1C(=O)N[C@H]1CCC[C@@H]1C(N)=O)NC(=O)[C@H]1CCC[C@@H]1NC(=O)[C@H]1CCC[C@@H]1NC(=O)C[C@H](CCCNC(=N)N)NC(=O)[C@H]1CCC[C@@H]1NC(=O)[C@H]1CCC[C@@H]1N` [H12 RI], the Kd in experiment [1] was 252 µM; in experiment [2] it was 194 µM; in experiment [3] it was 245 µM; in experiment [4], 56 µM.
On to `CC(C)C[C@@H](CC(=O)N[C@H]1CCC[C@@H]1C(=O)N[C@H]1CCC[C@@H]1C(N)=O)NC(=O)[C@H]1CCC[C@@H]1NC(=O)[C@H]1CCC[C@@H]1NC(=O)C[C@H](CCCNC(=N)N)NC(=O)[C@H]1CCC[C@@H]1NC(=O)[C@H]1CCC[C@@H]1N` [H12 RL], for which the Kd was 252 µM in experiment [1], 194 µM in experiment [2], 245 µM in experiment [3] and 56 µM in experiment [4].
The matching figures for `CSCC[C@@H](CC(=O)N[C@H]1CCC[C@@H]1C(=O)N[C@H]1CCC[C@@H]1C(N)=O)NC(=O)[C@H]1CCC[C@@H]1NC(=O)[C@H]1CCC[C@@H]1NC(=O)C[C@H](CCCNC(=N)N)NC(=O)[C@H]1CCC[C@@H]1NC(=O)[C@H]1CCC[C@@H]1N` [H12 RM]: 464 µM, 201 µM, 335 µM and 96 µM.
For `N=C(N)NCCC[C@@H](CC(=O)N[C@H]1CCC[C@@H]1C(=O)N[C@H]1CCC[C@@H]1C(N)=O)NC(=O)[C@H]1CCC[C@@H]1NC(=O)[C@H]1CCC[C@@H]1NC(=O)C[C@H](CCCNC(=N)N)NC(=O)[C@H]1CCC[C@@H]1NC(=O)[C@H]1CCC[C@@H]1N` [H12 RR], in that order: 123 µM, 181 µM, 210 µM and 89 µM.
For `N=C(N)NCCC[C@@H](CC(=O)N[C@H]1CCC[C@@H]1C(=O)N[C@H]1CCC[C@@H]1C(=O)N[C@H](CC(=O)N[C@H]1CCC[C@@H]1C(=O)N[C@H]1CCC[C@@H]1C(N)=O)Cc1c[nH]c2ccccc12)NC(=O)[C@H]1CCC[C@@H]1NC(=O)[C@H]1CCC[C@@H]1N` [H12 RW], in that order: 19 µM, 126 µM, 95 µM and 25 µM.
For `N=C(N)NCCC[C@@H](CC(=O)N[C@H]1CCC[C@@H]1C(=O)N[C@H]1CCC[C@@H]1C(=O)N[C@H](CC(=O)N[C@H]1CCC[C@@H]1C(=O)N[C@H]1CCC[C@@H]1C(N)=O)Cc1ccc(O)cc1)NC(=O)[C@H]1CCC[C@@H]1NC(=O)[C@H]1CCC[C@@H]1N` [H12 RY], the Kd was 381 µM in experiment [1], 198 µM in experiment [2], 400 µM in experiment [3] and 89 µM in experiment [4].
The matching figures for `CC(C)[C@@H](CC(=O)N[C@H]1CCC[C@@H]1C(=O)N[C@H]1CCC[C@@H]1C(=O)N[C@H](CC(=O)N[C@H]1CCC[C@@H]1C(=O)N[C@H]1CCC[C@@H]1C(N)=O)Cc1ccccc1)NC(=O)[C@H]1CCC[C@@H]1NC(=O)[C@H]1CCC[C@@H]1N` [H12 VF]: 128 µM, 388 µM, 95 µM and 45 µM.
For `CC[C@H](C)[C@@H](CC(=O)N[C@H]1CCC[C@@H]1C(=O)N[C@H]1CCC[C@@H]1C(N)=O)NC(=O)[C@H]1CCC[C@@H]1NC(=O)[C@H]1CCC[C@@H]1NC(=O)C[C@@H](NC(=O)[C@H]1CCC[C@@H]1NC(=O)[C@H]1CCC[C@@H]1N)C(C)C` [H12 VI], in that order: 164 µM, 469 µM, 190 µM and 92 µM.
The matching figures for `CC(C)C[C@@H](CC(=O)N[C@H]1CCC[C@@H]1C(=O)N[C@H]1CCC[C@@H]1C(N)=O)NC(=O)[C@H]1CCC[C@@H]1NC(=O)[C@H]1CCC[C@@H]1NC(=O)C[C@@H](NC(=O)[C@H]1CCC[C@@H]1NC(=O)[C@H]1CCC[C@@H]1N)C(C)C` [H12 VL]: 164 µM, 469 µM, 190 µM and 92 µM.
